This is an account of results in ChEMBL document CHEMBL3734655, “Identification of camphor derivatives as novel M2 ion channel inhibitors of influenza A virus” (Medchemcomm, 2015).

Series [1] relates to Influenza A virus H3N2. As to the kind of experiment: Antiviral activity against wild type M2 ion channel expressing Influenza A virus (A/Hong Kong/1968(H3N2)) infected in MDCK cells preincubated for 30 mins followed by viral infection measured after 72 hrs by CCK-8 assay. The format is functional, organism-based. The settings on record: A/Hong Kong/1968, MDCK. Background: Tetrazolium assays rely on reduction of a dye to a coloured formazan, in cell work by metabolically active cells.

The nature of series [2]: Cytotoxicity against MDCK cells incubated for 72 hrs by CCK-8 assay. The format is cell-based, Canis lupus familiaris. The settings on record: dog.
In series [3] the test system is Influenza A virus H3N2. As to the kind of experiment: Antiviral activity against wild type Influenza A virus (A/Hong Kong/1968(H3N2)) infected in MDCK cells assessed as reduction in size and number of plaque at 0.2 uM after 2 to 3 days by crystal violet staining based assay. Type of series: functional, organism-based.
In series [4] the test system is Influenza A virus H3N2. Description: Antiviral activity against wild type Influenza A virus (A/Hong Kong/1968(H3N2)) infected in MDCK cells assessed as reduction in size and number of plaque at 1 uM after 2 to 3 days by crystal violet staining based assay. Type of series: functional, organism-based.
The subject of series [5] is Influenza A virus H3N2. Description: Potency index, ratio of amantadine IC50 to compound IC50 for wild type M2 ion channel expressing Influenza A virus (A/Hong Kong/1968(H3N2)) infected in MDCK cells. Type of series: functional.

Calls of active or inactive are those of the source. The calls are words filed in the database; no cut-off is given here.

Broadly, the IC50 is the point on the concentration scale where inhibition reaches its midpoint. Lower therefore signals higher potency. `NC12CC3CC(CC(C3)C1)C2` [AMANTADINE] showed an IC50 in the series on Influenza A virus H3N2 [1] of 500 nM.

`C[C@H]1[C@H](CN)C[C@@H]2C[C@H]1C2(C)C`: the IC50 with Influenza A virus H3N2 [1] was determined as 2470 nM. This molecule returned an MCC at 72 h in series [2] above 300 µM.

Take `CC1(C)[C@H]2CC[C@](C)(C2)[C@H]1CN`: in the series on Influenza A virus H3N2 [1], the IC50 was 15700 nM. In series [2], this molecule registered an MCC at 72 h above 300 µM.

As to `CC1(C)[C@@H]2CC[C@@]1(C)[C@@H](CN)C2`, in the series on Influenza A virus H3N2 [1], the 50% inhibitory concentration (IC50) stood at 290 nM. This molecule also had an MCC at 72 h in series [2] above 300 µM.

As for `C[C@H]1[C@H]([C@H](C)N)C[C@@H]2C[C@H]1C2(C)C`, the IC50 in the series with Influenza A virus H3N2 [1] was 1930 nM. In series [2], this molecule showed an MCC at 72 h above 300 µM.

In the series on Influenza A virus H3N2 [1], `CC1(C)[C@@H]2CC[C@@]1(C)[C@@H](N)C2` (relative stereo) yielded a 50% inhibitory concentration (IC50) of 490 nM. In series [2], the MCC at 72 h was above 300 µM.

In the case of `C[C@H]1[C@H](N)C[C@@H]2C[C@H]1C2(C)C`, the IC50 in the series with Influenza A virus H3N2 [1] is 120 nM. Also, in series [2], the MCC at 72 h is above 300 µM.

Consider `N[C@H]1C[C@@H]2CC[C@H]1C2`, for which the IC50 in the series on Influenza A virus H3N2 [1] was determined as 12400 nM. Further, the MCC at 72 h in series [2] was above 300 µM.

Take `NC1CC2CCC1C2` (configuration not stated): in the series with Influenza A virus H3N2 [1], the IC50 is 17400 nM. The same molecule came in with an MCC at 72 h in series [2] above 300 µM.

With `C[C@@H](N)[C@H]1C[C@H]2CC[C@]1(C)C2(C)C.Cl`, the outcome with Influenza A virus H3N2 [3] and in the series with Influenza A virus H3N2 [4] was Active. Further, 100 nM corresponded to half-maximal inhibition in the series with Influenza A virus H3N2 [1] (IC50). This molecule also yielded an MCC at 72 h in series [2] above 300 µM. Also, the “Ratio IC50” value in the series with Influenza A virus H3N2 [5] came to 5.
